Measurements as given in US9181273B2, “Morpholine-spirocyclic piperidine amides as modulators of ion channels” (Vertex Pharmaceuticals Incorporated, priority 2011, dated 2015).

Biological target: human NaV subtype, like NaV 1.7 (Homo sapiens, UniProt Q15858)
Assay: E-VIPR optical membrane potential assay with electrical stimulation
Assay type: cell-based
Conditions: active against one or more sodium channels; assay and NaV subtype not specified for Table 3; read-out: IC50 Binned Activity Data
Source text: Sodium channels are voltage-dependent proteins that can be activated by inducing membrane voltage changes by applying electric fields. […] The instrument comprises a microtiter plate handler, an optical system for exciting the coumarin dye while simultaneously recording the coumarin and oxonol emissions, a waveform generator, a current- or voltage-controlled amplifier, and a device for inserting electrodes in well. Under integrated computer control, this instrument passes user-programmed electrical stimulus protocols to cells within the wells of the microtiter plate.
24 hours before the assay on E-VIPR, HEK cells expressing human NaV subtype, like NaV 1.7, are seeded in 384-well poly-lysine coated plates at 15,000-20,000 cells per well. Other subtypes are performed in an analogous mode in a cell line expressing the NaV of interest. […] Cells are grown in vented cap flasks, in 90% humidity and 10% CO2, to 100% confluence. They are usually split by trypsinization 1:10 or 1:20, depending on scheduling needs, and grown for 2-3 days before the next split.
To make the solution Add volume of 10% Pluronic F127 stock equal to volumes of CC2-DMPE+DiSBAC6(3). The order of preparation is first mix Pluronic and CC2-DMPE, then add DiSBAC6(3) while vortexing, then add Bath1+β-Cyclodextrin.
1) Pre-spot compounds (in neat DMSO) into compound plates. […] Final compound plate volume will be 80 μL (80-fold intermediate dilution from 1 μL DMSO spot; 160-fold final dilution after transfer to cell plate).
2) Prepare Hexyl Dye Solution.
3) Prepare cell plates. On the day of the assay, medium is aspirated and cells are washed three times with 100 μL of Bath1 Solution, maintaining 25 μL residual volume in each well.
4) Dispense 25 μL per well of Hexyl Dye Solution into cell plates. Incubate for 20-35 minutes at room temp or ambient conditions.
5) Dispense 80 μL per well of Bath1 into compound plates. Acid Yellow-17 (1 mM) is added and Potassium Chloride can be altered from 4.5 to 20 mM depending on the NaV subtype and assay sensitivity.
6) Wash cell plates three times with 100 μL per well of Bath1, leaving 25 μL of residual volume. Then transfer 25 uL per well from Compound Plates to Cell Plates. Incubate for 20-35 minutes at room temp/ambient condition
7) Read Plate on E-VIPR. Use the current-controlled amplifier to deliver stimulation wave pulses for typically 9 seconds and a scan rate of 400 Hz. A pre-stimulus recording is performed for 0.5 seconds to obtain the un-stimulated intensities baseline. The stimulatory waveform is applied for 9 seconds followed by 0.5 seconds of post-stimulation recording to examine the relaxation to the resting state. The stimulatory waveform of the electrical stimulation is specific for each cell type and can vary the magnitude, duration and frequency of the applied current to provide an optimal assay signal.
Data are analyzed and reported as normalized ratios of background-subtracted emission intensities measured in the 460 nm and 580 nm channels. Background intensities are then subtracted from each assay channel. Background intensities are obtained by measuring the emission intensities during the same time periods from identically treated assay wells in which there are no cells. The response as a function of time is then reported as the ratios obtained using the following formula: […]
The data is further reduced by calculating the initial (Ri) and final (Rf) ratios. These are the average ratio values during part or all of the pre-stimulation period, and during sample points during the stimulation period. The response to the stimulus R=Rf/Ri is then calculated and reported as a function of time.
Control responses are obtained by performing assays in the presence of a compound with the desired properties (positive control), such as tetracaine, and in the absence of pharmacological agents (negative control). Responses to the negative (N) and positive (P) controls are calculated as above. The compound antagonist activity A is defined as: […]

human NaV subtype, like NaV 1.7, sequence (Q15858 whole entry): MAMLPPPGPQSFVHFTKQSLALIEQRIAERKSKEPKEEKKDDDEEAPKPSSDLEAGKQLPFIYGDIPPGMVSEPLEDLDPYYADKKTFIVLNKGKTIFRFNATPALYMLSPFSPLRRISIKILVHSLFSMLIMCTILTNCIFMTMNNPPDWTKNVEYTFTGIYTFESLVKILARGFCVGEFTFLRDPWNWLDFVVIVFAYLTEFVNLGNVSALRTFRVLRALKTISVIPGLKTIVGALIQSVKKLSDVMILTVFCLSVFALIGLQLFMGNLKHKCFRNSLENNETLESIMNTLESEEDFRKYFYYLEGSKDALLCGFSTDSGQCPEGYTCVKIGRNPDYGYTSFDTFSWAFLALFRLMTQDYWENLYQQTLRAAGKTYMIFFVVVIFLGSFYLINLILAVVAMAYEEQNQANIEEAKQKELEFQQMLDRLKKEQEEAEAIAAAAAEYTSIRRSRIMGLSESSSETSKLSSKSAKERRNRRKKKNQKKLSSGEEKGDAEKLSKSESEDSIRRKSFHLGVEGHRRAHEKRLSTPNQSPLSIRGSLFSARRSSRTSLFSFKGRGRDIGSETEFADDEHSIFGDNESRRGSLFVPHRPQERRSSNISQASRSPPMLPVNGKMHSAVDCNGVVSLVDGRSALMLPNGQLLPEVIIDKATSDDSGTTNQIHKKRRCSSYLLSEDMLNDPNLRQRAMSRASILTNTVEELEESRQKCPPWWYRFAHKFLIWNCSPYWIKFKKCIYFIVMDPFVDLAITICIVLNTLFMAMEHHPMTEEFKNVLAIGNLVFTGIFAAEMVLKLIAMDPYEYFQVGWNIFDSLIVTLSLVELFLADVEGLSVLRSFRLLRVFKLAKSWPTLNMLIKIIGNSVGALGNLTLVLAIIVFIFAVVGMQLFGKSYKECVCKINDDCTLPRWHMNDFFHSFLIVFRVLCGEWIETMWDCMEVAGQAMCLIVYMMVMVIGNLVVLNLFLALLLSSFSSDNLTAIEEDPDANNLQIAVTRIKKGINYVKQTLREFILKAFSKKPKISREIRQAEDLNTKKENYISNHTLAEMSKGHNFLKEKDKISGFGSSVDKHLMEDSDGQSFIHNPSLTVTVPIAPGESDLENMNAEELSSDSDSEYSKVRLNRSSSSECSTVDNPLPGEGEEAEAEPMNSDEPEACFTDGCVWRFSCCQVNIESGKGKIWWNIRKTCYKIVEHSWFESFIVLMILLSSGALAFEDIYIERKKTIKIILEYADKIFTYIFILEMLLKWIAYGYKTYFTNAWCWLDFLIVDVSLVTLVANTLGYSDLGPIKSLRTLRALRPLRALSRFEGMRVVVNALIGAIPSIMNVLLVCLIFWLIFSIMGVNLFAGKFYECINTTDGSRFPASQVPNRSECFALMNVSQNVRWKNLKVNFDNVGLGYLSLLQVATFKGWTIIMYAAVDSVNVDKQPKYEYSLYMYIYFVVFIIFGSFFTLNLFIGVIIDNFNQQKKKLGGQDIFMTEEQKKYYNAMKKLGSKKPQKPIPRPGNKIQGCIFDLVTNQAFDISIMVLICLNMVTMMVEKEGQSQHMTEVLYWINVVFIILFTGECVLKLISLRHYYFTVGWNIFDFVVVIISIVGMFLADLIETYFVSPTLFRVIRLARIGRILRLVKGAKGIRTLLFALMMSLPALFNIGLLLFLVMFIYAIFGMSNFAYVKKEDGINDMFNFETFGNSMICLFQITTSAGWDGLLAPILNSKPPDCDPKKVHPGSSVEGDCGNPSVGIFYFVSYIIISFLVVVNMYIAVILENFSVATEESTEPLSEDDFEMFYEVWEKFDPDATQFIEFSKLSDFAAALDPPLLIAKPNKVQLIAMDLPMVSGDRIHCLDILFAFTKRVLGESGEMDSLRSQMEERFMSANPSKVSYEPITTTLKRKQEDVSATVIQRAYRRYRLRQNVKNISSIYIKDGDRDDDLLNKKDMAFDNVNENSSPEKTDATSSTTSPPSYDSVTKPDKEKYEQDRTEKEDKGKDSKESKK

Row | Compound | IC50 [nM]
1 | COCC1CN(C)CC2(CCN(C(=O)c3ccc(OC(C)C)c(C)c3)CC2)O1 (stereo not shown) [Compound 32] | > 5000
2 | CCC1CN(CC(F)(F)F)CC2(CCN(C(=O)c3ccc(OC(C)C)c(C)c3)CC2)O1 (stereo not shown) [Compound 233] | < 2000
3 | Cc1cc(C(=O)N2CCC3(CC2)CN(CC(F)(F)F)CC(c2ccccc2)O3)ccc1S(C)(=O)=O (stereo not shown) [Compound 189] | < 2000
4 | COCC1CN(c2ncccn2)CC2(CCN(C(=O)c3ccc(OCCC(C)C)c(OC)c3)CC2)O1 (stereo not shown) [Compound 276] | < 2000
5 | COCC1CN(c2ncccn2)CC2(CCN(C(=O)c3ccc(C4(O)CCCCC4)cc3)CC2)O1 (stereo not shown) [Compound 237] | < 2000
6 | CC(C)Oc1ccc(C(=O)N2CCC3(CC2)CN(CC(F)(F)F)CC(c2ccccc2)O3)cc1CO (stereo not shown) [Compound 194] | < 2000
7 | COCC1CN(c2ccncc2)CC2(CCN(C(=O)c3ccc(OC(C)C)c(C)c3)CC2)O1 (stereo not shown) [Compound 31] | > 5000
8 | O=C(c1ccc(C2(O)COC2)cc1)N1CCC2(CC1)CN(CC(F)(F)F)CC(c1ccccc1)O2 (stereo not shown) [Compound 151] | > 5000
9 | Cc1cc(C(=O)N2CCC3(CC2)CN(C(C)C)CC(c2ccccc2)O3)ccc1OC(C)C (stereo not shown) [Compound 281] | < 2000
10 | CC(C)(O)c1ccc(C(=O)N2CCC3(CC2)CN(CC(F)F)CC(c2ccccc2)O3)cc1 (stereo not shown) [Compound 241] | 2000 to 5000
11 | CCC1CN(c2ccccn2)CC2(CCN(C(=O)c3ccc(C4(O)CCCC4)c(F)c3)CC2)O1 (stereo not shown) [Compound 17] | < 2000
12 | CCN(CC)C(=O)c1ccc(C(=O)N2CCC3(CC2)CN(CC(F)(F)F)CC(c2ccccc2)O3)cc1F (stereo not shown) [Compound 293] | < 2000
13 | Cc1cc(C(=O)N2CCC3(CC2)CN(CC(C)C)CC(c2ccccc2)O3)ccc1OC(C)C (stereo not shown) [Compound 29] | < 2000
14 | Cc1cc(S(C)(=O)=O)ccc1C(=O)N1CCC2(CC1)CN(CC(F)(F)F)CC(c1ccccc1)O2 (stereo not shown) [Compound 108] | > 5000
15 | CC(C)(O)Cc1ccc(C(=O)N2CCC3(CC2)CN(CC(F)(F)F)CC(c2ccccc2)O3)cc1 (stereo not shown) [Compound 133] | < 2000
16 | Cc1nc2cccc(C(=O)N3CCC4(CC3)CN(CC(F)(F)F)CC(c3ccccc3)O4)c2o1 (stereo not shown) [Compound 116] | < 2000
17 | COCC1CN(CC(C)=O)CC2(CCN(C(=O)c3ccc(OC(C)C)c(C)c3)CC2)O1 (stereo not shown) [Compound 113] | > 5000
18 | COCCOc1ccc(C(=O)N2CCC3(CC2)CN(CC(F)(F)F)CC(c2ccccc2)O3)cc1OC (stereo not shown) [Compound 143] | < 2000
19 | COCC1CN(c2ccc(C#N)cc2)CC2(CCN(C(=O)c3ccc(OC(C)C)c(C)c3)CC2)O1 (stereo not shown) [Compound 70] | < 2000
20 | CCC(CC)N1CC(COC)OC2(CCN(C(=O)c3ccc(OC(C)C)c(C)c3)CC2)C1 (stereo not shown) [Compound 48] | < 2000
21 | CC(C)(O)c1ccc(C(=O)N2CCC3(CC2)CN(CC(F)F)CC(c2ccccn2)O3)cc1F (stereo not shown) [Compound 57] | 2000 to 5000
22 | CC(C)Oc1ccc(C(=O)N2CCC3(CC2)CN(CC(F)F)CC(c2ccc(F)cc2)O3)cc1CO (stereo not shown) [Compound 4] | 2000 to 5000
23 | Cc1cc(C(=O)N2CCC3(CC2)CN(CC(F)(F)F)CC(c2ccccc2)O3)ccc1OC1COC1 (stereo not shown) [Compound 245] | < 2000
24 | CCN1CC2(CCN(C(=O)c3ccc(OC(C)C)c(C)c3)CC2)OC(c2ccccc2)C1=O (stereo not shown) [Compound 9] | 2000 to 5000
25 | COCC1CN(Cc2ccccc2)CC2(CCN(C(=O)c3ccc(OC(C)C)c(C)c3)CC2)O1 (stereo not shown) [Compound 169] | < 2000
26 | COCC1CN(Cc2cncnc2)CC2(CCN(C(=O)c3ccc(OC(C)C)c(C)c3)CC2)O1 (stereo not shown) [Compound 69] | > 5000
27 | COCCOc1ccc(C(=O)N2CCC3(CC2)CN(c2ncccn2)CC(COC)O3)cc1OC (stereo not shown) [Compound 125] | > 5000
28 | CCC1CN(C(C)(C)C)CC2(CCN(C(=O)c3ccc(OC(C)C)c(C)c3)CC2)O1 (stereo not shown) [Compound 18] | < 2000

Row | Compound | IC50 [nM]
29 | O=C(c1ccccc1OC(F)F)N1CCC2(CC1)CN(CC(F)(F)F)CC(c1ccccc1)O2 (stereo not shown) [Compound 90] | > 5000
30 | Cc1cc(C(=O)N2CCC3(CC2)CN(CC(F)F)CC(c2ccc(Cl)cc2)O3)ccc1OC(C)C (stereo not shown) [Compound 122] | > 5000
31 | COCC1CN(c2cccc(C(F)(F)F)c2)CC2(CCN(C(=O)c3ccc(C(C)(C)O)c(F)c3)CC2)O1 (stereo not shown) [Compound 58] | < 2000
32 | CC#CCN1CC(CC)OC2(CCN(C(=O)c3ccc(OC)c(C)c3)CC2)C1 (stereo not shown) [Compound 141] | > 5000
33 | CCN1CC(c2ncc(C)s2)OC2(CCN(C(=O)c3ccc(OC(C)C)c(OC)c3)CC2)C1 (stereo not shown) [Compound 76] | 2000 to 5000
34 | O=C(c1ccc(S(=O)(=O)C2CCOC2)cc1)N1CCC2(CC1)CN(CC(F)F)CC(c1ccc(F)cc1)O2 (stereo not shown) [Compound 96] | > 5000
35 | COCC1CN(c2ncccn2)CC2(CCN(C(=O)c3ccc(OC(C)C)c(F)c3)CC2)O1 (stereo not shown) [Compound 19] | < 2000
36 | COCC1CN(c2ncccn2)CC2(CCN(C(=O)c3ccc(OC(C)C)cc3)CC2)O1 (stereo not shown) [Compound 136] | 2000 to 5000
37 | COCC1CN(C2COC2)CC2(CCN(C(=O)c3ccc(OC(C)C)c(C)c3)CC2)O1 (stereo not shown) [Compound 255] | > 5000
38 | COCCN1CC(COC)OC2(CCN(C(=O)c3ccc(OC(C)C)c(C)c3)CC2)C1 (stereo not shown) [Compound 188] | 2000 to 5000
39 | CCN1CC(c2ccccc2)OC2(CCN(C(=O)c3ccc(OC(C)C)c(C)c3)CC2)C1 (stereo not shown) [Compound 22] | < 2000
40 | CC#CCN1CC(F)(F)OC2(CCN(C(=O)c3ccc(OC(C)C)c(C)c3)CC2)C1 [Compound 154] | > 5000
41 | CC(C)Oc1ccc(C(=O)N2CCC3(CC2)CN(CC(F)(F)F)CC(c2ccccc2)O3)nc1 (stereo not shown) [Compound 177] | < 2000
42 | Cc1cc(C(=O)N2CCC3(CC2)CN(CC(F)F)CC(c2ccc(F)cc2)O3)ccc1OCCCO (stereo not shown) [Compound 81] | > 5000
43 | CC(C)Oc1ccc(C(=O)N2CCC3(CC2)CN(CC(F)F)CC(c2ncco2)O3)cc1F (stereo not shown) [Compound 243] | < 2000
44 | CC(C)Oc1ccc(C(=O)N2CCC3(CC2)CN(CC(F)F)CC(c2ccccn2)O3)cc1Cl (stereo not shown) [Compound 222] | < 2000
45 | COCC1CN(Cc2ccccc2F)CC2(CCN(C(=O)c3ccc(OC(C)C)c(C)c3)CC2)O1 (stereo not shown) [Compound 102] | < 2000
46 | COCC1CN(c2ncccn2)CC2(CCN(C(=O)c3ccc(C(C)(C)O)cc3)CC2)O1 (stereo not shown) [Compound 161] | > 5000
47 | Cc1cc(C(=O)N2CCC3(CC2)CN(CC#N)CC(c2ccccc2)O3)ccc1OC(C)C (stereo not shown) [Compound 283] | < 2000
48 | Cc1cnc(C2CN(C(C)(C)C)CC3(CCN(C(=O)c4ccc(OC(C)C)c(F)c4)CC3)O2)o1 (stereo not shown) [Compound 268] | 2000 to 5000
49 | Cc1cc(C(=O)N2CCC3(CC2)CN(CC(F)(F)F)CC(c2ccccc2)O3)ccc1OC(C)C (stereo not shown) [Compound 301] | < 2000
50 | COCC1CN(c2ccnc(C)c2)CC2(CCN(C(=O)c3ccc(OC(C)C)c(C)c3)CC2)O1 (stereo not shown) [Compound 95] | > 5000
51 | CCN1CC(c2ccccc2)OC2(CCN(C(=O)c3ccc(OC(C)C)nc3)CC2)C1 (stereo not shown) [Compound 308] | > 5000
52 | COCC1CN(c2ncccc2OC)CC2(CCN(C(=O)c3ccc(OC(C)C)c(C)c3)CC2)O1 (stereo not shown) [Compound 79] | < 2000
53 | CC(C)(C)Oc1ccc(C(=O)N2CCC3(CC2)CN(CC(F)(F)F)CC(c2ccccc2)O3)nc1 (stereo not shown) [Compound 13] | < 2000
54 | Cc1noc(C2CN(Cc3ccccc3)CC3(CCN(C(=O)c4ccc(OC(C)C)c(C)c4)CC3)O2)n1 (stereo not shown) [Compound 148] | 2000 to 5000
55 | COc1cc(C(=O)N2CCC3(CC2)CN(CC(F)F)CC(c2cccc(C)n2)O3)cc(F)c1OC(C)C (stereo not shown) [Compound 162] | > 5000
